#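 Exposure lasted 48 hours, with cells grown in 96-well plates and compounds tested at five concentrations. GI50 is the concentration that inhibits growth by half. TGI: total growth inhibition.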
# Assays:
# Assay in all cases: NCI anticancer screen, dose series, 48 h
# SF-539 CNS = test system: SF-539 CNS
# HT29 colon = test system: HT29 colon
# NCI-H460 lung = test system: NCI-H460 lung
# 786-0 renal = test system: 786-0 renal
# NCI/ADR-RES ovarian = test system: NCI/ADR-RES ovarian
# NCI-H522 lung = test system: NCI-H522 lung
# SK-OV-3 ovarian = test system: SK-OV-3 ovarian
# NCI-H23 lung = test system: NCI-H23 lung
# SF-268 CNS = test system: SF-268 CNS
# CAKI-1 renal = test system: CAKI-1 renal
# MCF7 breast = test system: MCF7 breast
# RXF 393 renal = test system: RXF 393 renal
# TK-10 renal = test system: TK-10 renal
# HS 578T breast = test system: HS 578T breast
# COLO 205 colon = test system: COLO 205 colon
# MDA-N = test system: MDA-N
# HCT-15 colon = test system: HCT-15 colon
# IGROV1 ovarian = test system: IGROV1 ovarian
# M14 melanoma = test system: M14 melanoma
# EKVX NSCLC = test system: EKVX NSCLC
# NCI-H226 lung = test system: NCI-H226 lung
# SNB-19 CNS = test system: SNB-19 CNS
# HCT-116 colon = test system: HCT-116 colon
# LOX IMVI melanoma = test system: LOX IMVI melanoma
# HCC-2998 colon = test system: HCC-2998 colon
# UO-31 renal = test system: UO-31 renal
# MDA-MB-231 breast = test system: MDA-MB-231 breast
# KM12 colon = test system: KM12 colon
# OVCAR-8 ovarian = test system: OVCAR-8 ovarian
# SNB-75 CNS = test system: SNB-75 CNS
# SK-MEL-5 melanoma = test system: SK-MEL-5 melanoma
# MALME-3M melanoma = test system: MALME-3M melanoma
# UACC-257 melanoma = test system: UACC-257 melanoma
# HOP-62 NSCLC = test system: HOP-62 NSCLC
# PC-3 prostate = test system: PC-3 prostate
# OVCAR-5 ovarian = test system: OVCAR-5 ovarian
# ACHN renal = test system: ACHN renal
# BT-549 breast = test system: BT-549 breast
# DU-145 prostate = test system: DU-145 prostate
# UACC-62 melanoma = test system: UACC-62 melanoma
# SF-295 CNS = test system: SF-295 CNS
# A549 NSCLC = test system: A549 NSCLC
# OVCAR-3 ovarian = test system: OVCAR-3 ovarian
# SN12C renal = test system: SN12C renal
# K-562 leukemia = test system: K-562 leukemia
# SW-620 colon = test system: SW-620 colon
# MDA-MB-435 = test system: MDA-MB-435
# SR leukemia = test system: SR leukemia
# A498 renal = test system: A498 renal
# RPMI-8226 leukemia = test system: RPMI-8226 leukemia
# HOP-92 NSCLC = test system: HOP-92 NSCLC
# SK-MEL-28 melanoma = test system: SK-MEL-28 melanoma
# U251 CNS = test system: U251 CNS
# T-47D breast = test system: T-47D breast
# HL-60(TB) leukemia = test system: HL-60(TB) leukemia
# SK-MEL-2 melanoma = test system: SK-MEL-2 melanoma
# MOLT-4 leukemia = test system: MOLT-4 leukemia
# OVCAR-4 ovarian = test system: OVCAR-4 ovarian
# CCRF-CEM leukemia = test system: CCRF-CEM leukemia
smiles,measurement,setting,value
O=[N+]([O-])c1ccc(O)c(C=NCC2CCCN3CCCCC23)c1 (centres undefined),TGI,SF-539 CNS,> 100 µM
same,TGI,HT29 colon,> 100 µM
same,TGI,NCI-H460 lung,> 100 µM
same,TGI,786-0 renal,> 100 µM
same,TGI,NCI/ADR-RES ovarian,> 100 µM
same,TGI,NCI-H522 lung,> 100 µM
same,TGI,SK-OV-3 ovarian,> 100 µM
same,TGI,NCI-H23 lung,> 100 µM
same,TGI,SF-268 CNS,75.5 µM
same,TGI,CAKI-1 renal,> 100 µM
same,TGI,MCF7 breast,> 100 µM
same,TGI,RXF 393 renal,59.7 µM
same,TGI,TK-10 renal,> 100 µM
same,TGI,HS 578T breast,46.6 µM
same,TGI,COLO 205 colon,75.9 µM
same,TGI,MDA-N,> 100 µM
same,TGI,HCT-15 colon,> 100 µM
same,TGI,IGROV1 ovarian,> 100 µM
same,TGI,M14 melanoma,53.2 µM
same,TGI,EKVX NSCLC,> 100 µM
same,TGI,NCI-H226 lung,89.9 µM
same,TGI,SNB-19 CNS,> 100 µM
same,TGI,HCT-116 colon,> 100 µM
same,TGI,LOX IMVI melanoma,> 100 µM
same,TGI,HCC-2998 colon,74.5 µM
same,TGI,UO-31 renal,> 100 µM
same,TGI,MDA-MB-231 breast,> 100 µM
same,TGI,KM12 colon,> 100 µM
same,TGI,OVCAR-8 ovarian,> 100 µM
same,TGI,SNB-75 CNS,> 100 µM
same,TGI,SK-MEL-5 melanoma,69.9 µM
same,TGI,MALME-3M melanoma,> 100 µM
same,TGI,UACC-257 melanoma,> 100 µM
same,TGI,HOP-62 NSCLC,> 100 µM
same,TGI,PC-3 prostate,> 100 µM
same,TGI,OVCAR-5 ovarian,> 100 µM
same,TGI,ACHN renal,89.1 µM
same,TGI,BT-549 breast,> 100 µM
same,TGI,DU-145 prostate,> 100 µM
same,TGI,UACC-62 melanoma,78.8 µM
same,TGI,SF-295 CNS,> 100 µM
same,TGI,A549 NSCLC,> 100 µM
same,TGI,OVCAR-3 ovarian,> 100 µM
Cn1c2ccccc2c2nnc(NNCc3ccccn3)nc21,GI50,SF-539 CNS,0.393 µM
same,TGI,SF-539 CNS,3.38 µM
same,GI50,HT29 colon,0.526 µM
same,TGI,HT29 colon,22.9 µM
same,GI50,NCI-H460 lung,0.3 µM
same,TGI,NCI-H460 lung,4.03 µM
same,GI50,786-0 renal,0.327 µM
same,TGI,786-0 renal,4.51 µM
same,GI50,NCI/ADR-RES ovarian,0.276 µM
same,TGI,NCI/ADR-RES ovarian,3.22 µM
same,GI50,NCI-H522 lung,0.546 µM
same,TGI,NCI-H522 lung,18.1 µM
same,GI50,SK-OV-3 ovarian,0.387 µM
same,TGI,SK-OV-3 ovarian,7.22 µM
same,GI50,NCI-H23 lung,0.421 µM
same,TGI,NCI-H23 lung,6.15 µM
same,GI50,SF-268 CNS,0.294 µM
same,TGI,SF-268 CNS,6.5 µM
same,GI50,CAKI-1 renal,0.248 µM
same,TGI,CAKI-1 renal,1.63 µM
same,GI50,SN12C renal,0.462 µM
same,TGI,SN12C renal,14.6 µM
same,GI50,MCF7 breast,0.372 µM
same,TGI,MCF7 breast,14.5 µM
same,GI50,K-562 leukemia,0.363 µM
same,TGI,K-562 leukemia,13.7 µM
same,GI50,SW-620 colon,0.613 µM
same,TGI,SW-620 colon,16.5 µM
same,GI50,MDA-MB-435,0.555 µM
same,TGI,MDA-MB-435,14.5 µM
same,GI50,RXF 393 renal,0.407 µM
same,TGI,RXF 393 renal,3.36 µM
same,GI50,TK-10 renal,0.614 µM
same,TGI,TK-10 renal,14.3 µM
same,GI50,SR leukemia,0.311 µM
same,TGI,SR leukemia,18.7 µM
same,GI50,HS 578T breast,1.44 µM
same,TGI,HS 578T breast,16.7 µM
same,GI50,COLO 205 colon,0.476 µM
same,TGI,COLO 205 colon,11.4 µM
same,GI50,HCT-15 colon,0.328 µM
same,TGI,HCT-15 colon,17.9 µM
same,GI50,IGROV1 ovarian,0.364 µM
same,TGI,IGROV1 ovarian,4.79 µM
same,GI50,M14 melanoma,0.246 µM
same,TGI,M14 melanoma,0.738 µM
same,GI50,A498 renal,0.415 µM
same,TGI,A498 renal,12.3 µM
same,GI50,EKVX NSCLC,0.406 µM
same,TGI,EKVX NSCLC,15.2 µM
same,GI50,RPMI-8226 leukemia,0.589 µM
same,TGI,RPMI-8226 leukemia,18.4 µM
same,GI50,NCI-H226 lung,0.324 µM
same,TGI,NCI-H226 lung,2.63 µM
same,GI50,HOP-92 NSCLC,0.279 µM
same,TGI,HOP-92 NSCLC,5.91 µM
same,GI50,SNB-19 CNS,0.597 µM
same,TGI,SNB-19 CNS,17.4 µM
same,GI50,HCT-116 colon,0.409 µM
same,TGI,HCT-116 colon,12.2 µM
same,GI50,LOX IMVI melanoma,0.349 µM
same,TGI,LOX IMVI melanoma,4.51 µM
same,GI50,SK-MEL-28 melanoma,0.675 µM
same,TGI,SK-MEL-28 melanoma,11.2 µM
same,GI50,HCC-2998 colon,0.321 µM
same,TGI,HCC-2998 colon,12.7 µM
same,GI50,UO-31 renal,0.258 µM
same,TGI,UO-31 renal,1.98 µM
same,GI50,MDA-MB-231 breast,1.03 µM
same,TGI,MDA-MB-231 breast,18 µM
same,GI50,KM12 colon,0.478 µM
same,TGI,KM12 colon,14.2 µM
same,GI50,OVCAR-8 ovarian,0.429 µM
same,TGI,OVCAR-8 ovarian,20.5 µM
same,GI50,U251 CNS,0.446 µM
same,TGI,U251 CNS,14.4 µM
same,GI50,T-47D breast,0.369 µM
same,TGI,T-47D breast,8.98 µM
same,GI50,SNB-75 CNS,1.16 µM
same,TGI,SNB-75 CNS,14.1 µM
same,GI50,SK-MEL-5 melanoma,0.271 µM
same,TGI,SK-MEL-5 melanoma,1.65 µM
same,GI50,MALME-3M melanoma,0.4 µM
same,TGI,MALME-3M melanoma,4.37 µM
same,GI50,UACC-257 melanoma,0.641 µM
same,TGI,UACC-257 melanoma,11.1 µM
same,GI50,HL-60(TB) leukemia,0.318 µM
same,TGI,HL-60(TB) leukemia,3.13 µM
same,GI50,HOP-62 NSCLC,0.324 µM
same,TGI,HOP-62 NSCLC,4.64 µM
same,GI50,PC-3 prostate,0.594 µM
same,TGI,PC-3 prostate,16.5 µM
same,GI50,OVCAR-5 ovarian,1.01 µM
same,TGI,OVCAR-5 ovarian,15.3 µM
same,GI50,SK-MEL-2 melanoma,5.17 µM
same,TGI,SK-MEL-2 melanoma,33 µM
same,GI50,ACHN renal,0.305 µM
same,TGI,ACHN renal,2.37 µM
same,GI50,BT-549 breast,0.729 µM
same,TGI,BT-549 breast,14.9 µM
same,GI50,DU-145 prostate,0.312 µM
same,TGI,DU-145 prostate,11 µM
same,GI50,UACC-62 melanoma,0.268 µM
same,TGI,UACC-62 melanoma,0.98 µM
same,GI50,SF-295 CNS,0.397 µM
same,TGI,SF-295 CNS,12.4 µM
same,GI50,MOLT-4 leukemia,0.38 µM
same,TGI,MOLT-4 leukemia,12.6 µM
same,GI50,A549 NSCLC,0.414 µM
same,TGI,A549 NSCLC,16.4 µM
same,GI50,OVCAR-3 ovarian,0.325 µM
same,TGI,OVCAR-3 ovarian,7.12 µM
same,GI50,OVCAR-4 ovarian,0.451 µM
same,TGI,OVCAR-4 ovarian,13.9 µM
same,GI50,CCRF-CEM leukemia,0.357 µM
same,TGI,CCRF-CEM leukemia,12.7 µM

# From PubChem BioAssay (NCI)
